For `Cc1cc(C(F)(F)F)nn1CC(=O)N1CCN(c2nc(C3=NOC(c4c(F)cccc4F)C3)cs2)CC1C(=O)O` (stereo not shown), the melting point (as a rule, the temperature, or range, at which the solid turns liquid) was 178 to 185 °C.
